According to patent US11685716B2, “Plant growth inhibiting agent, and plant growth inhibiting method using same” (NATIONAL UNIVERSITY CORPORATION KUMAMOTO UNIVERSITY, priority 2017, dated 2023):

What was measured:
thale cress = assay: Plant growth inhibition index, thale cress on agar medium in test tube (Evaluation 8, 9); format: in vivo, thale cress (Col-0, wild-type strain); set-up: key: 0: No effect; 1: Growth of the root part was inhibited 50% or less compared with non-treated area.; 2: Growth of the root part was inhibited 50% or more compared with non-treated area.; 3: Growth of the root part was substantially inhibited.; 4: Germination was inhibited; conditions: for Index: Concentration 200 μM, 8 days (Evaluation 9, Table 2)
Description: 0.44% (w/v) Mixed salts for Murashige and Skoog medium (SIGMA), 1% (w/v) sucrose, and 0.05% (w/v) MES were mixed, and pH of the solution was adjusted to pH 5.7 with potassium hydroxide. 1.5% (w/v) Agar was added to the mixture, which was sterilized at 120° C. in an autoclave for 20 minutes. The test compound and dimethylformamide containing 1.5% of polyoxyethylenesorbitan monolaurate for a control experiment, were added at this stage and blended. In addition, the compound was used by adjusting an addition concentration to 200 μM. Four ml each of the medium was dispensed in sterile glass test tube ([…] RIKA GLASS CO., LTD.) to prepare agar medium.
As a plant material, Col-0, which is a wild-type strain of thale cress, was used.
Seeds, after their surfaces were sterilized, were planted on the agar medium, and the growth of the plant was carried out in a plant incubator (CFH-405) under the conditions of an illuminance of 3 at 23° C. with constant light. The plants on the agar medium were grown for 8 days in the chamber.
The plant growth inhibition effect of the compounds was evaluated by conversion to indexes according to the following investigation criteria.

Japanese bristlegrass = assay: Spray treatment to stems and leaves, killing weed index (Evaluation 10); format: in vivo; conditions: 2000 g active ingredient per hectare, two weeks later
Description: (§1) POA allyl phenyl ether (4.1 parts by weight), POE-POP glycol (1 part by weight), POE sorbitan laurate (0.8 parts by weight), glycerin (2.6 parts by weight), dimethylformamide (65.9 parts by weight), N-methylpyrrolidone (5.1 parts by weight), cyclohexanone (15.4 parts by weight), and aromatic hydrocarbon (5.1 parts by weight) were mixed and dissolved to prepare an emulsion. The compounds of the present invention (4 mg) were dissolved in this emulsion (100 μL) to prepare a test emulsion. In addition, POA means “polyoxyalkylene”, POE means “polyoxyethylene”, and POP means “polyoxypropylene.”
(§2) Four hundred μL of the above test emulsion was diluted with 7600 μL of water to use as a test spray liquid.
(§3) Further, 400 μL of the above test emulsion was diluted with 1600 μL of a 1% Tween20 aqueous solution to use as a spray liquid for a small amount spray test.
(§4) For a comparative spray liquid, 53 μL of a 30% pendimethalin emulsion (Gogosan emulsion: manufactured by BASF Japan) as a control pesticides was diluted with 7947 μL of water. Further, for a comparative spray liquid for a small amount spray test, 53 μL of the 30% pendimethalin emulsion was diluted with 1947 μL of water.
(§5) A 150 cm^2 pot was filled with a soil, seeds of each purple amaranth, Japanese bristlegrass, southern crabgrass, and velvet leaf were sown on the surface layer, lightly covered with a soil and grown in a greenhouse. When each plant grew to a plant height of 2 to 9 cm, the test spray liquid was sprayed to the stem and leaf parts with a small spraying machine such that an active ingredient amount was 2000 g per hectare and a sprayed liquid amount was 1000 L per hectare.
(§6) Similarly, the test spray liquid for a small amount spray test was sprayed to the stem and leaf parts with a small spraying machine such that an active ingredient amount was 2000 g per hectare and a sprayed liquid amount was 250 L per hectare.
(§7) Two weeks later, the above-ground grass weight in non-treated areas and the above-ground grass weight in treated areas, by the weed, were measured to calculate a killing weed rate by the following calculating formula.
(§8) (a) Calculating Formula of Weeding Rate Killing weed rate (%)=(above-ground grass weight in non-treated area−above-ground grass weight in treated area)/(above-ground grass weight in non-treated area)×100 (b) Killing Weed Indexes
(§9) The obtained killing weed rates were evaluated, such that a killing weed index was “10” when a killing weed rate is 100%, as “9” when a killing weed rate is 99% to 90%, “8” when a killing weed rate is 89% to 80%, “7” when a killing weed rate is 79% to 70%, “6” when a killing weed rate is 69% to 60%, “5” when a killing weed rate is 59% to 50%, “4” when a killing weed rate is 49% to 40%, “3” when a killing weed rate is 39% to 30%, “2” when a killing weed rate is 29% to 20%, “1” when a killing weed rate is 19% to 10%, and “0” when a killing weed rate is 9% to 0%.

purple amaranth = assay: as above; format: in vivo; conditions: 2000 g active ingredient per hectare, two weeks later
Description: as §1, §2, §3, §4, §5, §6, §7, §8, §9

southern crabgrass = assay: as above; format: in vivo; conditions: 2000 g active ingredient per hectare, two weeks later
Description: as §1, §2, §3, §4, §5, §6, §7, §8, §9

velvet leaf [1] = assay: as above; format: in vivo; conditions: 2000 g active ingredient per hectare, two weeks later
Description: as §1, §2, §3, §4, §5, §6, §7, §8, §9

Japanese millet = assay: Seed treatment, plant growth inhibition index (Evaluation 11); format: in vivo; set-up: key: 0: No effect; 1: Growth of the root part was inhibited 50% or less compared with non-treated area.; 2: Growth of the root part was inhibited 50% or more compared with non-treated area.; 3: Growth of the root part was substantially inhibited.; 4: Germination was inhibited
Description: (§10) The compound of the present invention (2 mg) was dissolved in a 1.5% Tween dimethylformamide solution (100 μL) to use as a test chemical solution.
(§11) Eight mL of sterilized water was poured to a cherry cup (100Φ×45 mm) lined with a filter paper, subsequently 81.1 μL of the sterilized water was removed, and 81.1 μL of the test chemical solution was added such that a final concentration of the compound was 800 μM.
(§12) Further, cherry cups were similarly prepared such that a final concentration of the compound was 200 μM.
(§13) Seeds (Japanese millet: 3 grains, velvet leaf: 6 grains, Ragweed: 8 grains, morning glory: 2 grains) were planted on the filter paper in the cherry cups, followed by growing the plants in a thermostatic chamber at 25° C. under a light-dark cycle in which a light period is 12 hours and a dark period is 12 hours for 6 days.
(§14) In addition, with regards to the compound (9a) and the compound (9b), the plants were tested for 7 days.
(§15) Plant growth inhibition effects of the compounds were evaluated by conversion to indexes according to the following investigation criteria.

Ragweed = assay: as above; format: in vivo; set-up: key: 0: No effect; 1: Growth of the root part was inhibited 50% or less compared with non-treated area.; 2: Growth of the root part was inhibited 50% or more compared with non-treated area.; 3: Growth of the root part was substantially inhibited.; 4: Germination was inhibited
Description: as §10, §11, §12, §13, §14, §15

morning glory = assay: as above; format: in vivo; set-up: key: 0: No effect; 1: Growth of the root part was inhibited 50% or less compared with non-treated area.; 2: Growth of the root part was inhibited 50% or more compared with non-treated area.; 3: Growth of the root part was substantially inhibited.; 4: Germination was inhibited
Description: as §10, §11, §12, §13, §14, §15

velvet leaf [2] = assay: as above; format: in vivo; set-up: key: 0: No effect; 1: Growth of the root part was inhibited 50% or less compared with non-treated area.; 2: Growth of the root part was inhibited 50% or more compared with non-treated area.; 3: Growth of the root part was substantially inhibited.; 4: Germination was inhibited
Description: as §10, §11, §12, §13, §14, §15

[3] = sprayed liquid amount 1000 L/ha
[4] = 200 μM, 6 days (9a, 9b: 7 days)

Row | Compound | Index (thale cress) | killing weed index, Japanese bristlegrass (Japanese bristlegrass; sprayed liquid amount 250 L/ha) | killing weed index, Japanese bristlegrass (Japanese bristlegrass; [3]) | killing weed index, Purple amaranth (purple amaranth; sprayed liquid amount 250 L/ha) | killing weed index, Purple amaranth (purple amaranth; [3]) | killing weed index, Southern crabgrass (southern crabgrass; sprayed liquid amount 250 L/ha) | killing weed index, Southern crabgrass (southern crabgrass; [3]) | killing weed index, Velvet leaf (velvet leaf [1]; sprayed liquid amount 250 L/ha) | killing weed index, Velvet leaf (velvet leaf [1]; [3]) | plant growth inhibition index, Japanese millet (Japanese millet; [4]) | plant growth inhibition index, Ragweed (Ragweed; [4]) | plant growth inhibition index, Morning glory (morning glory; [4]) | plant growth inhibition index, Velvet leaf (velvet leaf [2]; [4]) | index on the plant growth inhibition effect (thale cress; 200 μM, 8 days (Evaluation 8)) | plant growth inhibition index, Japanese millet (Japanese millet; 800 μM, 6 days) | plant growth inhibition index, Ragweed (Ragweed; 800 μM, 6 days) | plant growth inhibition index, Morning glory (morning glory; 800 μM, 6 days) | plant growth inhibition index, Velvet leaf (velvet leaf [2]; 800 μM, 6 days)
1 | CCCCCCCCCOn1cccc1C(=O)NCC(F)(F)F [Compound 9f] | 2 (Growth of the root part was inhibited 50% or more compared with non-treated area.) | 2 (“2” when a killing weed rate is 29% to 20%) | 1 (“1” when a killing weed rate is 19% to 10%) | 0 (“0” when a killing weed rate is 9% to 0%) | 0 (“0” when a killing weed rate is 9% to 0%) | 2 (“2” when a killing weed rate is 29% to 20%) | 3 (“3” when a killing weed rate is 39% to 30%) | 0 (“0” when a killing weed rate is 9% to 0%) | 0 (“0” when a killing weed rate is 9% to 0%) | 3 (Growth of the stem and leave parts was inhibited 30% or more compared with non-treated area, or growth of the only root part was inhibited 60% or more compared with non-treated area.) | 5 (Growth of the stem and leave parts was inhibited 50% or more compared with non-treated area, or growth of the only root part was inhibited 100% or more compared with non-treated area.) | 3 (Growth of the stem and leave parts was inhibited 30% or more compared with non-treated area, or growth of the only root part was inhibited 60% or more compared with non-treated area.) | 0 | – | – | – | – | –
2 | CCCCCCCCCOn1cccc1C(=O)O [Compound 8b] | – | 5 (“5” when a killing weed rate is 59% to 50%) | 5 (“5” when a killing weed rate is 59% to 50%) | 8 (“8” when a killing weed rate is 89% to 80%) | 3 (“3” when a killing weed rate is 39% to 30%) | 2 (“2” when a killing weed rate is 29% to 20%) | 4 (“4” when a killing weed rate is 49% to 40%) | 6 (“6” when a killing weed rate is 69% to 60%) | 0 (“0” when a killing weed rate is 9% to 0%) | 3 (Growth of the stem and leave parts was inhibited 30% or more compared with non-treated area, or growth of the only root part was inhibited 60% or more compared with non-treated area.) | 3 (Growth of the stem and leave parts was inhibited 30% or more compared with non-treated area, or growth of the only root part was inhibited 60% or more compared with non-treated area.) | 3 (Growth of the stem and leave parts was inhibited 30% or more compared with non-treated area, or growth of the only root part was inhibited 60% or more compared with non-treated area.) | 0 | 4 | 10 | 9 (Growth of the stem and leave parts was inhibited 90% or more compared with non-treated area.) | 8 (Growth of the stem and leave parts was inhibited 80% or more compared with non-treated area.) | 8 (Growth of the stem and leave parts was inhibited 80% or more compared with non-treated area.)
3 | CCCCCCCCCOn1cc(Cl)cc1C(=O)O [Compound 9b] | 3 | 3 (“3” when a killing weed rate is 39% to 30%) | – | 10 (“10” when a killing weed rate is 100%) | – | 2 (“2” when a killing weed rate is 29% to 20%) | – | 2 (“2” when a killing weed rate is 29% to 20%) | – | 0 | 0 | 3 (Growth of the stem and leave parts was inhibited 30% or more compared with non-treated area, or growth of the only root part was inhibited 60% or more compared with non-treated area.) | 0 | – | – | – | – | –
